Data taken from patent US20100040620A1, “ANTI-CANCER ANTIBODIES AGAINST LEWISy AND LEWISb ANTIGENS” (priority 2006, published 2010).

Tested on: C170 xenografts
Assay: Prevention model, C170 xenografts
Format: in vivo
Settings: SC101/29 0.2 mg ip 3 times weekly; 5-FU/leucovorin 12.5 mg/kg iv; days 12-23; p<0.004 ANOVA alone, p<0.02 combination
Procedure: Prevention model. The colorectal tumour cell line, C170 was maintained in serial passage in nude mice. For therapy the mice were sacrificed and the tumours excised. The tumour was finely minced and 3 mm^2 pieces were implanted, under anaesthetic (Hypnorm, Roche/Hypnovel, Jannsen), subcutaneously, into 40 male mice which had been randomly allocated to 4 experimental groups. A group of mice were treated with 5-FU/leucovorin (12.5 mg/kg) by intravenous (iv) injection on days 1, 3, 5, 7, 21 and 22. Three times weekly mice were also injected intraperitoneally (ip) with 0.2 mg of SC101/29 mAb. Control mice received either SC101/29 mAb, 5-FU/leucovorin or vehicle alone. Tumour size was measured by callipers and tumour cross-sectional area calculated on days 12, 16, 19 and 23. At the termination of the experiment tumours were weighed to assess anti-tumour efficacy. Animals were weighed to assess the toxicity of treatment.

Substance: 5-FU/leucovorin
- tumour growth of freshly explanted C170 tumours (cross-sectional area): inhibition of tumour growth
